Results as given in patent US9637491B2, “Pyrazolo[4,3-D]pyrimidines as kinase inhibitors” (Origenis GmbH, priority 2012, dated 2017).

Target: T1, SYK kinase (Homo sapiens, UniProt P43405)
T1 construct: purchased Invitrogen, Carlsbad
Experiment: SYK assay (OMNIA Kinase Assay, Invitrogen)
Assay type: biochemical
Conditions: SYK Activities; 1 mM ATP, 10 μM Omnia Peptide Substrate Tyr 7, 30° C.
How it was run: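 SYK was added last to start phosphorylation of a chelation-enhanced SOX peptide substrate (10 μM) in the presence of 1 mM ATP and 0.2 mM DTT at 30° C. Kinetic readings at λex 360/λem 485 nm over 30 min gave velocities, fitted sigmoidally against compound concentration to give IC50.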

IC50 | SMILES
100 to 1000 nM | COCCn1cc(Nc2nc(-c3cccc(NS(C)(=O)=O)c3)nc3cn[nH]c23)cn1 [Example 265, N-(3-(7-((1-(2-methoxyethyl)-1H-pyrazol-4-yl)amino)-1H-pyrazolo[4,3-d]pyrimidin-5-yl)phenyl)methanesulfonamide]
100 to 1000 nM | COc1ccc(Nc2nc(-c3ccoc3)nc3cn[nH]c23)cc1OC [Example 95, N-(3,4-dimethoxyphenyl)-5-(furan-3-yl)-1H-pyrazolo[4,3-d]pyrimidin-7-amine]
100 to 1000 nM | CC(C)(C#N)n1cc(Nc2nc(C3CC3)nc3cn[nH]c23)cn1 [Example 177, 2-(4-((5-cyclopropyl-1H-pyrazolo[4,3-d]pyrimidin-7-yl)amino)-1H-pyrazol-1-yl)-2-methylpropanenitrile]
100 to 1000 nM | CC(C)Cn1cc(Nc2nc(-c3c(F)cccc3F)nc3cn[nH]c23)cn1 [Example 440, 5-(2,6-difluorophenyl)-N-(1-isobutyl-1H-pyrazol-4-yl)-1H-pyrazolo[4,3-d]pyrimidin-7-amine]
10 to 100 nM | Fc1cccc(F)c1-c1nc(Nc2ccc3c(c2)NCCO3)c2[nH]ncc2n1 [Example 537, N-(5-(2,6-difluorophenyl)-1H-pyrazolo[4,3-d]pyrimidin-7-yl)-3,4-dihydro-2H-benzo[b][1,4]oxazin-6-amine]
100 to 1000 nM | O=C(c1ccc(Nc2nc(C3CC3)nc3cn[nH]c23)cc1F)N1CCOCC1 [Example 208, (4-((5-cyclopropyl-1H-pyrazolo[4,3-d]pyrimidin-7-yl)amino)-2-fluorophenyl)(morpholino)methanone]
100 to 1000 nM | CC(=O)N1CCN(c2ccc(Nc3nc(-c4ccno4)nc4cn[nH]c34)cc2)CC1 [Example 67, 1-(4-(4-((5-(isoxazol-5-yl)-1H-pyrazolo[4,3-d]pyrimidin-7-yl)amino)phenyl)piperazin-1-yl)ethan-1-one]
< 10 nM | CN1CCC(n2cc(Nc3nc(C4CCC4)nc4cn[nH]c34)cn2)CC1 [Example 206, 5-cyclobutyl-N-(1-(1-methylpiperidin-4-yl)-1H-pyrazol-4-yl)-1H-pyrazolo[4,3-d]pyrimidin-7-amine]
100 to 1000 nM | CN1CCN(C2CCN(C(=O)c3ccc(Nc4nc(C5CC5)nc5cn[nH]c45)cc3)CC2)CC1 [Example 53, (4-((5-cyclopropyl-1H-pyrazolo[4,3-d]pyrimidin-7-yl)amino)phenyl)(4-(4-methylpiperazin-1-yl)piperidin-1-yl)methanone]
10 to 100 nM | CC(C)n1cc(Nc2nc(-c3cccc(NS(C)(=O)=O)c3)nc3cn[nH]c23)cn1 [Example 259, N-(3-(7-((1-isopropyl-1H-pyrazol-4-yl)amino)-1H-pyrazolo[4,3-d]pyrimidin-5-yl)phenyl)methanesulfonamide]
< 10 nM | CC(C)(C)N1CCC(n2cc(Nc3nc(-c4ccoc4)nc4cn[nH]c34)cn2)CC1 [Example 291, N-(1-(1-(tert-butyl)piperidin-4-yl)-1H-pyrazol-4-yl)-5-(furan-3-yl)-1H-pyrazolo[4,3-d]pyrimidin-7-amine]
10 to 100 nM | CC(C)C(C)n1cc(Nc2nc(-c3ccc4cn[nH]c4c3)nc3cn[nH]c23)cn1 (stereo not drawn) [Example 469, 5-(1H-indazol-6-yl)-N-(1-(3-methylbutan-2-yl)-1H-pyrazol-4-yl)-1H-pyrazolo[4,3-d]pyrimidin-7-amine]
100 to 1000 nM | c1cc(N2CCNCC2)ccc1Nc1nc(C2CC2)nc2cn[nH]c12 [Example 55, 5-cyclopropyl-N-(4-(piperazin-1-yl)phenyl)-1H-pyrazolo[4,3-d]pyrimidin-7-amine]
100 to 1000 nM | c1cc(N2CCOCC2)ccc1Nc1nc(C2COCCO2)nc2cn[nH]c12 (stereo not drawn) [Example 84, 5-(1,4-dioxan-2-yl)-N-(4-morpholinophenyl)-1H-pyrazolo[4,3-d]pyrimidin-7-amine]
< 10 nM | CN1CCN(c2ccc(Nc3nc(-c4ccc5cn[nH]c5c4)nc4cn[nH]c34)cc2CO)CC1 [Example 536, (5-((5-(1H-indazol-6-yl)-1H-pyrazolo[4,3-d]pyrimidin-7-yl)amino)-2-(4-methylpiperazin-1-yl)phenyl)methanol]
10 to 100 nM | CC(=O)N1CCC(n2cc(Nc3nc(C4CCC4)nc4cn[nH]c34)cn2)CC1 [Example 205, 1-(4-(4-((5-cyclobutyl-1H-pyrazolo[4,3-d]pyrimidin-7-yl)amino)-1H-pyrazol-1-yl)piperidin-1-yl)ethan-1-one]
10 to 100 nM | O=C1OCCN1c1ccc(Nc2nc(-c3ccco3)nc3cn[nH]c23)cc1 [Example 115, 3-(4-((5-(furan-2-yl)-1H-pyrazolo[4,3-d]pyrimidin-7-yl)amino)phenyl)oxazolidin-2-one]
< 10 nM | O=C1CCc2ccc(Nc3nc(C4CC4)nc4cn[nH]c34)cc2N1 [Example 22, 7-((5-cyclopropyl-1H-pyrazolo[4,3-d]pyrimidin-7-yl)amino)-3,4-dihydroquinolin-2(1H)-one]
< 10 nM | CC(C)(C)N1CCN(c2ccc(Nc3nc(-c4ccc5cn[nH]c5c4)nc4cn[nH]c34)cc2)CC1 [Example 45, N-(4-(4-(tert-butyl)piperazin-1-yl)phenyl)-5-(1H-indazol-6-yl)-1H-pyrazolo[4,3-d]pyrimidin-7-amine]
100 to 1000 nM | CN1C(=O)COc2ccc(Nc3nc(-c4ccc5cn[nH]c5c4)nc4cn[nH]c34)cc21 [Example 470, 6-((5-(1H-indazol-6-yl)-1H-pyrazolo[4,3-d]pyrimidin-7-yl)amino)-4-methyl-2H-benzo[b][1,4]oxazin-3(4H)-one]
100 to 1000 nM | CC(C)n1cc(Nc2nc(-c3ncco3)nc3cn[nH]c23)cn1 [Example 250, N-(1-isopropyl-1H-pyrazol-4-yl)-5-(oxazol-2-yl)-1H-pyrazolo[4,3-d]pyrimidin-7-amine]
100 to 1000 nM | COCCn1ccc(Nc2nc(C3CCC3)nc3cn[nH]c23)cc1=O [Example 226, 4-((5-cyclobutyl-1H-pyrazolo[4,3-d]pyrimidin-7-yl)amino)-1-(2-methoxyethyl)pyridin-2(1H)-one]
10 to 100 nM | CN1CCC(n2cc(Nc3nc(-c4cccc(NS(C)(=O)=O)c4)nc4cn[nH]c34)cn2)CC1 [Example 264, N-(3-(7-((1-(1-methylpiperidin-4-yl)-1H-pyrazol-4-yl)amino)-1H-pyrazolo[4,3-d]pyrimidin-5-yl)phenyl)methanesulfonamide]
10 to 100 nM | FCCn1cc(Nc2nc(C3CC3)nc3cn[nH]c23)cn1 [Example 362, 5-cyclopropyl-N-(1-(2-fluoroethyl)-1H-pyrazol-4-yl)-1H-pyrazolo[4,3-d]pyrimidin-7-amine]
10 to 100 nM | CC(C)(C)N1CCN(c2ccc(Nc3nc(-c4c(F)cccc4F)nc4cn[nH]c34)cc2)CC1 [Example 10, N-(4-(4-(tert-butyl)piperazin-1-yl)phenyl)-5-(2,6-difluorophenyl)-1H-pyrazolo[4,3-d]pyrimidin-7-amine]
10 to 100 nM | FCCn1cc(Nc2nc(-c3ccco3)nc3cn[nH]c23)cn1 [Example 367, N-(1-(2-fluoroethyl)-1H-pyrazol-4-yl)-5-(furan-2-yl)-1H-pyrazolo[4,3-d]pyrimidin-7-amine]
100 to 1000 nM | c1coc(-c2nc(Nc3cnn(C4CCOCC4)c3)c3[nH]ncc3n2)n1 [Example 254, 5-(oxazol-2-yl)-N-(1-(tetrahydro-2H-pyran-4-yl)-1H-pyrazol-4-yl)-1H-pyrazolo[4,3-d]pyrimidin-7-amine]
